Assay results from US7981898B2, “Methods of enhancing mucosal hydration and mucosal clearance by treatment with sodium channel blockers and osmolytes” (Parion Sciences, Inc., priority 2006, dated 2011).

System: Primary canine bronchial epithelia (CBE)
Test: Gravimetric measurement of surface liquid volume on primary bronchial epithelial cultures at air-liquid interface (Assay #4)
Type: cell-based
Procedure: 4. Durability of Novel ENaC Blockers with or without Osmolytes on Airway Surface Liquid on an in vitro Cell Culture Model.
Using a gravimetric (weighing) procedure, the luminal surface liquid (mass/volume) on primary bronchial epithelial cultures grown at an air/liquid interface on permeable membrane supports (Corning) are measured, and changes in luminal surface liquid volume are recorded for up to 8 h. An applied starting volume of buffer (Krebs-Henseleit Bicarbonate Buffer Solution) with and without equimolar concentrations (0.1-100 μM) of selected novel or commercially available sodium channel blockers with or without osmolytes are added and at which point the experiment is started. The permeable supports are then reweighted at select time points and the mass/volume recorded. The data is then analyzed determining the changes in surface liquid mass/volume form beginning to the end of the 8 hour time frame.
To measure the effects of novel sodium channel blockers with or without osmotically active agents on surface liquid volume on airway surface liquid an in vitro cell culture model was used as described above, Assay #4. The effects of an ionic osmolyte, 1.5% NaCl (hypertonic saline), with or without 10 μM of compound 1 before and after adding 1.5% NaCl and compared it to isotonic buffer (vehicle) (FIG. 1) on surface liquid volume was measured over 8 hours. Using the same method (Assay #4) the effects of a non-ionic osmolyte mannitol at 4.2 and 8.4 mg/mL were compared to compound 1 and isotonic buffer (vehicle) (FIG. 2), and also by combining mannitol (4.2 and 8.4 mg/mL) with compound 1 at 1 and 10 μM (FIG. 3) on surface liquid volume was measured. The effects of compound 2 with an ionic osmolyte, 1.5% NaCl (hypertonic saline), was compared to compound 1 and hypertonic saline (1.5% NaCl), compound 1 in isotonic buffer, compound 2 in isotonic buffer, 1.5% NaCl, and isotonic buffer (vehicle) (FIG. 4) on changes in surface liquid over 8 hours. […]

N=C(NCCCCc1ccc(OCC(O)CO)cc1)NC(=O)c1nc(Cl)c(N)nc1N (stereo not drawn) [Compound 1]
volume expansion (Compound 1 (10 μM) with pre or post administration of 1.5% NaCl solution, maintained for 8 hours, n=12): 132+13% | inhibition of volume depletion (surface liquid volume) (Compound 1 alone at 10 μM, for over 8 hours): 74.7 ± 8.7% | duration of the increase in ASL volume (hypertonic saline (1.5% NaCl) combined with Compound 1 (10 μM)): over 8 h
